Patent publication US8735375B2, “Therapeutic compositions” (Leo Laboratories Limited, priority 2005, dated 2014)

Assays:
[1] = Preliminary in vitro diffusion study (Franz cell); type: in vitro ADME; details: human stratum corneum, at detectable levels
Description: Once the stability of I3A in the excipients and penetration enhancers had been established, a preliminary in vitro diffusion experiment could be conducted to determine the permeation of stratum corneum by I3A from some simple formulations. The Franz diffusion cell is designed to mimic the physiological and anatomical conditions of skin in situ. It is an air/fluid phase static cell, which comprises a donor compartment, receptor compartment and a side arm sampling port (see FIG. 1). Surgically excised skin is positioned between the two halves with the stratum corneum facing the donor compartment to allow for drug application.
An initial in vitro diffusion experiment using a simple formulation of I3A in miglyol was performed. […] This formulation was used in later diffusion cell experiments as a negative control and also served to confirm the integrity of the stratum corneum, as if there is no diffusion of drug from this formulation, it can be assumed that the stratum corneum remains intact.
A formulation of I3A was prepared in phosphate buffer (pH 4.5) with β-cyclodextrins (Captisol®) added with a view to increasing the solubility and stability of I3A, and the flux of the drug. A second formulation in DMSO, a known penetration enhancer, was also prepared for comparative purposes, as well as a formulation in miglyol, which served as a negative control. […]

[2] = Stability of I3A in DMSO; type: physicochemical; details: 10 days
Method: I3A was investigated for stability in DMSO at room temperature and at 37° C. over a 10 day time period. A control sample of I3A in acetonitrile was kept under the same conditions as the test sample. The samples were analysed by HPLC at the start of the experiment (Day 0), after 48 hours (Day 2) and again after 10 days.
The chromatographic conditions employed were as follows: […]

[3] = Stability of I3A isoforms in the assay solvent systems over 72 h; type: physicochemical
Method: The stability of […] isoforms 'a', 'b' and 'c' in the three sample systems over 72 h (equivalent to the maximum possible length of time the samples might be held in the autosampler during a long HPLC analytical run) was confirmed as follows. Standards of the three isoforms of […] The standards were then each divided into three equal volumes and placed at 2-8° C., room temperature and 40° C. for 72 h and were then again analysed by HPLC.

[4] = Acetonitrile/Citrate buffer (pH 3), 72 h 2-8° C.
[5] = Acetonitrile/Citrate buffer (pH 3), 72 h 40° C.
[6] = Acetonitrile/Citrate buffer (pH 3), 72 h RTP
[7] = Acetonitrile/Citrate buffer (pH 3), Time 0 h
[8] = Acetonitrile/Sodium acetate buffer (pH 4.5), 72 h 2-8° C.
[9] = Acetonitrile/Sodium acetate buffer (pH 4.5), 72 h 40° C.
[10] = Acetonitrile/Sodium acetate buffer (pH 4.5), 72 h RTP
[11] = Acetonitrile/Sodium acetate buffer (pH 4.5), Time 0 h

SMILES: C/C=C(/C)C(=O)O[C@H]1C(C)=C[C@]23C(=O)[C@H](C=C(CO)[C@@H](O)[C@]12O)[C@H]1[C@@H](C[C@H]3C)C1(C)C [Formulation I3A, ingenol-3-angelate]
- diffusion of I3A across the stratum corneum [1]: diffuses across the stratum corneum
- stability ([2]; 37° C.): stable
- stability ([2]; room temperature): stable
- % ‘a’ ([3]; Acetonitrile, 72 h 2-8° C.): 3.94%
- % ‘b’ ([3]; Acetonitrile, 72 h 2-8° C.): 95.45%
- % ‘c’ ([3]; Acetonitrile, 72 h 2-8° C.): 0%
- % ‘a’ ([3]; Acetonitrile, 72 h 40° C.): 15.52%
- % ‘b’ ([3]; Acetonitrile, 72 h 40° C.): 83.35%
- % ‘c’ ([3]; Acetonitrile, 72 h 40° C.): 0%
- % ‘a’ ([3]; Acetonitrile, 72 h RTP): 5.83%
- % ‘b’ ([3]; Acetonitrile, 72 h RTP): 93.51%
- % ‘c’ ([3]; Acetonitrile, 72 h RTP): 0%
- % ‘a’ ([3]; Acetonitrile, Time 0 h): 0.39%
- % ‘b’ ([3]; Acetonitrile, Time 0 h): 99.27%
- % ‘c’ ([3]; Acetonitrile, Time 0 h): 0%
- % ‘a’ [3, 4]: 0.18%
- % ‘b’ [3, 4]: 99.49%
- % ‘c’ [3, 4]: 0%
- % ‘a’ [3, 5]: 0.34%
- % ‘b’ [3, 5]: 99.63%
- % ‘c’ [3, 5]: 0%
- % ‘a’ [3, 6]: 0.13%
- % ‘b’ [3, 6]: 99.76%
- % ‘c’ [3, 6]: 0%
- % ‘a’ [3, 7]: 0.13%
- % ‘b’ [3, 7]: 99.64%
- % ‘c’ [3, 7]: 0%
- % ‘a’ [3, 8]: 0.63%
- % ‘b’ [3, 8]: 99.02%
- % ‘c’ [3, 8]: 0%
- % ‘a’ [3, 9]: 6.35%
- % ‘b’ [3, 9]: 93.13%
- % ‘c’ [3, 9]: 0%
- % ‘a’ [3, 10]: 1.16%
- % ‘b’ [3, 10]: 98.41%
- % ‘c’ [3, 10]: 0%
- % ‘a’ [3, 11]: 0.34%
- % ‘b’ [3, 11]: 98.88%
- % ‘c’ [3, 11]: 0.01%
